Experiments:
[1] = target: DNA (cytosine-5)-methyltransferase 1 (Homo sapiens, UniProt P26358); test: Inhibition of human recombinant DNMT1 expressed in baculovirus-insect cell system by scintillation counting
[2] = target: DNA (cytosine-5)-methyltransferase 3B (Homo sapiens, UniProt Q9UBC3); test: Inhibition of human recombinant DNMT3B expressed in baculovirus-insect cell system by scintillation counting

Chain of DNA (cytosine-5)-methyltransferase 1 (P26358 whole entry): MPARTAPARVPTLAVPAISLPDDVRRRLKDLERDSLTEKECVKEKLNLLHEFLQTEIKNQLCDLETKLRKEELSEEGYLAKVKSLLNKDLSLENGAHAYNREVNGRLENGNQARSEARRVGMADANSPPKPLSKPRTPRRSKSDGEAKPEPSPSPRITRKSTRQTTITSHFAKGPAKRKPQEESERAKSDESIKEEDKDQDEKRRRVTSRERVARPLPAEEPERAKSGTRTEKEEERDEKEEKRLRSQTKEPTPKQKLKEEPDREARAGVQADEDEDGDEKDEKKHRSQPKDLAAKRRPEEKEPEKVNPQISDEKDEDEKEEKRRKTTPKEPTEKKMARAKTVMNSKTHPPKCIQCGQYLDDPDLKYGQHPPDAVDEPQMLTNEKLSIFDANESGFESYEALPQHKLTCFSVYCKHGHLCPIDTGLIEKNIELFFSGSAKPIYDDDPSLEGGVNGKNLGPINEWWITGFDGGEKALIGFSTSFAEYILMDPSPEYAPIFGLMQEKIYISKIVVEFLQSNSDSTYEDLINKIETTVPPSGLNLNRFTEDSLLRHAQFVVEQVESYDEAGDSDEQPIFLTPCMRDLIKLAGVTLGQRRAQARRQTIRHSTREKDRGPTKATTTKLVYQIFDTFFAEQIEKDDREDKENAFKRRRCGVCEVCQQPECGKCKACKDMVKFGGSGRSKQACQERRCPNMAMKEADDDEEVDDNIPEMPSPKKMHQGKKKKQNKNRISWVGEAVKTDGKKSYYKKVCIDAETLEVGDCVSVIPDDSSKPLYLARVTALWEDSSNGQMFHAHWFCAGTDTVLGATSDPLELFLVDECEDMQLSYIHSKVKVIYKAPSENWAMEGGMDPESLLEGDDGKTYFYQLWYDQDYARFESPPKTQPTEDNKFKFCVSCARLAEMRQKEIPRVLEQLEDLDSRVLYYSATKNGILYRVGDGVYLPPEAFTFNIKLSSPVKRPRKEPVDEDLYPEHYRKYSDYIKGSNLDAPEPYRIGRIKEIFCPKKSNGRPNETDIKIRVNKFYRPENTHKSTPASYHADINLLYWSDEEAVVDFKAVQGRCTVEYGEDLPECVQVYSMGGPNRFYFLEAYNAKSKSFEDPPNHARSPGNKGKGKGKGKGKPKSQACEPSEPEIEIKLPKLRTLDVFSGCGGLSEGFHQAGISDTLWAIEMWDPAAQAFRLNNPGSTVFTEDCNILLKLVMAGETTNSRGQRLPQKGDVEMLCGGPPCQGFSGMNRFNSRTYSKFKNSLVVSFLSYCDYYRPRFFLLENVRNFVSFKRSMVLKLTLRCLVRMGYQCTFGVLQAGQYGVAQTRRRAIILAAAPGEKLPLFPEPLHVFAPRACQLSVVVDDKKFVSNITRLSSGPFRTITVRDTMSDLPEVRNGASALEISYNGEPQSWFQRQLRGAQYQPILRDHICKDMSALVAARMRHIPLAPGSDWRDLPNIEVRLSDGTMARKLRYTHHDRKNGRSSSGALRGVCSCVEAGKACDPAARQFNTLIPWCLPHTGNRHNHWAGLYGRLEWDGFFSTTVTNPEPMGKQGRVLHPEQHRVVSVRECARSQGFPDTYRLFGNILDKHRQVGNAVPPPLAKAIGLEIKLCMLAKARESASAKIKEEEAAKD

IC50 [1] | IC50 [2] | IC50 ([1]; read-out: IC50) [µM] | IC50 ([2]; read-out: IC50) [µM] | SMILES
Not Active | Not Active | – | – | O=C(O)CCCC(C(=O)O)N1C(=O)c2ccccc2C1=O (stereo not given)
– | Not Active | 212 | – | O=C(O)COc1ccc(C(=O)c2cc(Br)ccc2OCC(=O)O)cc1
– | – | – | 0.25 | Nc1ncnc2c1ncn2[C@@H]1O[C@H](CSCC[C@H](N)C(=O)O)[C@@H](O)[C@H]1O [S-ADENOSYLHOMOCYSTEINE]
